Results taken from EPA's ToxRefDB 2.

Legend:
[1] = system: rat; conditions: Prenatal developmental toxicity study, sprague dawley, Oral, Gavage/Intubation, dose end: 15 GD
[2] = system: rat; conditions: Subchronic dermal toxicity, sprague dawley, Topical, dose end: 13 week, group: systemic, systemic / in life observation / clinical signs / desquamation + systemic / in life observation / clinical signs / erythema + systemic / in …
[3] = system: rat; conditions: Prenatal developmental toxicity study, Oral, Gavage/Intubation, dose end: 19 GD
[4] = system: rat; conditions: Subchronic oral toxicity in rodents, wistar, Feed, dose end: 90 day, group: systemic, systemic / in life observation / clinical signs / motor activity + systemic / organ weight / kidney / relative to body weight + systemic / …
[5] = system: rabbit; conditions: Prenatal developmental toxicity study; new zealand white; Oral; Gavage/Intubation; dose end: 18 GD; group: maternal; systemic / in life observation / body weight / body weight gain
[6] = system: dog; conditions: Chronic toxicity; beagle; Oral; Feed; dose end: 52 week; group: systemic; systemic / hematology / nucleated red blood cell (nrbc) / nucleated red blood cell (nrbc) + systemic / in life observation / clinical signs…
[7] = system: rat; conditions: Multigenerational reproductive toxicity study, sprague dawley, Oral, Feed, dose end: 2 generation
[8] = system: rat; conditions: Subchronic oral toxicity in rodents, sprague dawley, Feed, dose end: 90 day, group: systemic
[9] = system: mouse; conditions: Carcinogenicity; cd1; Oral; Gavage/Intubation; dose end: 104 week; group: systemic; systemic / pathology microscopic / gallbladder / adenoma + systemic / pathology microscopic / gallbladder / hemangioma + systemic / …
[10] = system: rat; conditions: Chronic toxicity, fischer, Oral, Gavage/Intubation, dose end: 1 year, group: systemic
[11] = system: rat; conditions: Subchronic oral toxicity in rodents, fischer, Gavage/Intubation, dose end: 90 day, group: systemic, systemic / clinical chemistry / cholesterol / cholesterol + systemic / in life observation / food consumption / food consumption + systemic…
[12] = system: mouse; conditions: Subchronic oral toxicity in rodents, b6c3f1, Gavage/Intubation, dose end: 13 week, group: systemic
[13] = group: developmental, developmental / developmental malformation / bone / bent + systemic / in life observation / body weight / fetal weight
[14] = group: maternal, systemic / in life observation / body weight / body weight + systemic / in life observation / body weight / body weight gain + systemic / in…
[15] = group: developmental, systemic / in life observation / body weight / fetal weight + developmental / developmental malformation / bone / unossified + developmental…
[16] = group: maternal, reproductive / reproductive performance / resorptions / resorptions + systemic / in life observation / body weight / body weight + systemic…
[17] = group: offspring, systemic / in life observation / body weight / offspring (pup) weight + systemic / pathology gross / heart / enlarged + systemic / pathology…
[18] = group: parental, systemic / in life observation / clinical signs / dental fluorosis
[19] = group: parental, systemic / in life observation / clinical signs / dental fluorosis + systemic / in life observation / clinical signs / teeth whitening
[20] = systemic / clinical chemistry / alanine aminotransferase (alt/sgpt) / alanine aminotransferase (alt/sgpt)
[21] = systemic / pathology gross / stomach / discolored + systemic / pathology gross / stomach / foci + systemic / pathology gross / stomach / …
[22] = systemic / in life observation / body weight / body weight
[23] = systemic / in life observation / body weight / body weight + systemic / organ weight / adrenal gland / relative to body weight + systemic / …
[24] = systemic / clinical chemistry / fatty acids / fatty acid + systemic / pathology microscopic / bone marrow / hypocellularity + systemic / …
[25] = systemic / pathology microscopic / liver / hypertrophy

**Q.** With CCC(C)(C)c1ccc(O)cc1 [4-(2-Methylbutan-2-yl)phenol] as the compound, how does the LEL [1, 13] read?
**A.** 500 mg/kg/day

**Q.** What about the LOAEL [1, 13] of the same compound?
**A.** 500 mg/kg/day

**Q.** What about the NEL [1, 13] of the same compound?
**A.** 200 mg/kg/day

**Q.** And the NOAEL [1, 13]?
**A.** 200 mg/kg/day

**Q.** And the LEL [1, 14]?
**A.** 200 mg/kg/day

**Q.** And the LOAEL [1, 14]?
**A.** 200 mg/kg/day

**Q.** What about the NEL [1, 14] of the same compound?
**A.** 50 mg/kg/day

**Q.** What about the NOAEL [1, 14] of the same compound?
**A.** 50 mg/kg/day

**Q.** And the LEL [2]?
**A.** 10 mg/kg/day

**Q.** What about the LOAEL [2] of the same compound?
**A.** 10 mg/kg/day

**Q.** What about the NEL [2] of the same compound?
**A.** 2.5 mg/kg/day

**Q.** What about the NOAEL [2] of the same compound?
**A.** 2.5 mg/kg/day

**Q.** Cc1cc(Cl)ccc1OCC(=O)OCCCCCC(C)C [MCPA-isooctyl] was tested. Which LEL ([3]; group: developmental, developmental / developmental malformation / bone / ossification sites) did it give?
**A.** 40 mg/kg/day

**Q.** And the LOAEL [3, 15]?
**A.** 120 mg/kg/day

**Q.** And the NEL [3, 15]?
**A.** 15 mg/kg/day

**Q.** What about the NOAEL [3, 15] of the same compound?
**A.** 40 mg/kg/day

**Q.** What about the LEL [3, 16] of the same compound?
**A.** 120 mg/kg/day

**Q.** And the LOAEL [3, 16]?
**A.** 120 mg/kg/day

**Q.** What about the NEL [3, 16] of the same compound?
**A.** 40 mg/kg/day

**Q.** And the NOAEL [3, 16]?
**A.** 40 mg/kg/day

**Q.** And the LEL [4]?
**A.** 54 mg/kg/day

**Q.** What about the LOAEL [4] of the same compound?
**A.** 54 mg/kg/day

**Q.** And the NEL [4]?
**A.** 5 mg/kg/day

**Q.** What about the NOAEL [4] of the same compound?
**A.** 5 mg/kg/day

**Q.** What does the source list for Cc1cccc(C)c1NC(=O)CC12CCCN1CCC2.Cl [Pilsicainide hydrochloride]?
**A.** LEL [5]: 10 mg/kg/day; LOAEL [5]: > 20 mg/kg/day; NEL [5]: 5 mg/kg/day; NOAEL [5]: ≥ 20 mg/kg/day

**Q.** Which LEL [6] does the source give for [F][Al-3]([F])([F])([F])([F])[F].[Na+].[Na+].[Na+] [Cryolite] here?
**A.** 95 mg/kg/day

**Q.** And the LOAEL [6]?
**A.** 95 mg/kg/day

**Q.** What about the NEL [6] of the same compound?
**A.** < 95 mg/kg/day

**Q.** And the NOAEL [6]?
**A.** < 95 mg/kg/day

**Q.** And the LOAEL ([7]; group: offspring, systemic / in life observation / body weight / offspring (pup) weight)?
**A.** 128 mg/kg/day

**Q.** And the LEL [7, 17]?
**A.** 128 mg/kg/day

**Q.** And the NEL [7, 17]?
**A.** 42 mg/kg/day

**Q.** What about the NOAEL [7, 17] of the same compound?
**A.** 42 mg/kg/day

**Q.** And the LOAEL [7, 18]?
**A.** 14 mg/kg/day

**Q.** And the NOAEL [7, 18]?
**A.** < 14 mg/kg/day

**Q.** And the LEL [7, 19]?
**A.** 14 mg/kg/day

**Q.** What about the NEL [7, 19] of the same compound?
**A.** < 14 mg/kg/day

**Q.** And the LEL [8, 20]?
**A.** 4.5 mg/kg/day

**Q.** And the NEL [8, 20]?
**A.** < 4.5 mg/kg/day

**Q.** What about the LOAEL [8, 21] of the same compound?
**A.** 399 mg/kg/day

**Q.** And the NOAEL [8, 21]?
**A.** 3.8 mg/kg/day

**Q.** What does the source list for Cc1c(C)c2c(c(C)c1O)CCC(C)(COc1ccc(CC3SC(=O)NC3=O)cc1)O2 (stereo not given) [Troglitazone]?
**A.** LEL [9]: 50 mg/kg/day; LOAEL [9]: > 50 mg/kg/day; NEL [9]: 4 mg/kg/day; NOAEL [9]: ≥ 50 mg/kg/day; LEL [10, 22]: 25 mg/kg/day; NEL [10, 22]: < 25 mg/kg/day; LOAEL [10, 23]: > 100 mg/kg/day; NOAEL [10, 23]: ≥ 100 mg/kg/day; LEL [11]: 20 mg/kg/day; LOAEL [11]: > 2500 mg/kg/day; NEL [11]: < 20 mg/kg/day; NOAEL [11]: ≥ 2500 mg/kg/day; LOAEL [12, 24]: > 1200 mg/kg/day; NOAEL [12, 24]: ≥ 1200 mg/kg/day; LEL [12, 25]: 50 mg/kg/day; NEL [12, 25]: < 50 mg/kg/day
